One test has as its system HCV genotype 1b replicon. In words: HCV replicon assay, genotype 1b replicon EC50. It is filed as cell-based, Hepatitis C virus. To be noted: read-out: EC50 [gt-1b]. The method, boiled down: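 Stable neomycin phosphotransferase-encoding replicon cell lines, kept under G418 selection beforehand, were plated with a compound dilution series without G418 and incubated 24-48 hours. Replicon RNA was then quantified, or luciferase activity read. EC50 was calculated as percent of DMSO control by four-parameter fit.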

Test [1] has as its target HCV NS3/4A protease genotype 1b (Hepatitis C virus genotype 1b, UniProt P26663). In words: HCV NS3/4A protease time-resolved fluorescence (TRF) assay, Ki against genotype 1b. It is filed as biochemical. The method, boiled down: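 Enzyme was pre-incubated 30 min with inhibitor in HEPES pH 7.5 buffer (150 mM NaCl, 15% glycerol, 10 mM DTT). Reaction ran 2.5 h at room temperature with 25 nM europium TRF peptide substrate, read at ex 340/em 615 nm. Enzyme levels: 0.2 nM (1b), 0.4 nM (A156T), 0.025 nM (3a). Ki came from four-parameter IC50 via IC50=Ki(1+[S]/KM).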

The mark [2] stands for this setting: Hepatitis C virus, genotype 1b replicon.
[3] abbreviates: IC50 [gt-1b] (nM), NS3/4A genotype 1b, enzyme 0.2 nM.
Setting [4] is: Hepatitis C virus, genotype 1b replicon, K+ salt.
[5] abbreviates: IC50 [gt-1b] (nM), NS3/4A genotype 1b, enzyme 0.2 nM, K+ salt.

Each structure is given as a SMILES string. Like-named read-outs stand apart in the source and are kept apart here.

In the case of `Cc1nc2ccccc2c2c1O[C@]1(CC2)C[C@H]2C(=O)N[C@]3(C(=O)NS(=O)(=O)C4(C)CC4)C[C@H]3/C=C\CCCCC[C@H](NC(=O)OC(C)(C)CCS(=O)(=O)C(C)C)C(=O)N2C1` [Example 304, 2-methyl-4-(propan-2-ylsulfonyl)butan-2-yl [(2R,6S,12Z,13aS,14aR,16aS)-5′-methyl-14a-{[(1-methylcyclopropyl)sulfonyl]carbamoyl}-5,16-dioxo-1,1′,2′,5,6,7,8,9,10,11,13a,14,14a,15,16,16a-hexadecahydrospiro[cyclopropa[e]pyrrolo[1,2-a][1,4]diazacyclopentadecine-2,3′-pyrano[2,3-c]quinolin]-6-yl]carbamate], the EC50 in the test with HCV genotype 1b replicon (setting [2]) was found to be 99.6 nM. The compound also came in with an IC50 in test [1] (setting [3]) of 0.027 nM.
As to `CCc1ccc2nc(C)c3c(c2c1)C(F)C[C@]1(C[C@H]2C(=O)N[C@]4(C(=O)NS(=O)(=O)C5(C)CC5)C[C@H]4/C=C\CCCCC[C@H](NC(=O)OC(C)(C)C(F)(F)F)C(=O)N2C1)O3` (single isomer, unassigned) [Example 346], the EC50 in the test with HCV genotype 1b replicon (genotype 1b replicon) came to 4.23 nM. In test [1] (setting [3]), this compound displayed a half-inhibitory concentration (IC50) of 0.012 nM.
Taken in the same sequence, the figures for `CCc1ccc2nc(C)c3c(c2c1)C(F)C[C@]1(C[C@H]2C(=O)N[C@]4(C(=O)NS(=O)(=O)C5(C)CC5)C[C@H]4/C=C\CCCCC[C@H](NC(=O)OC(C)(C)C)C(=O)N2C1)O3` (single isomer, unassigned) [Example 315] were 294 nM and 1.29 nM.
As for `COc1ccc2nc(C)c3c(c2c1)[C@H](F)C[C@]1(C[C@H]2C(=O)N[C@]4(C(=O)NS(=O)(=O)C5(C)CC5)C[C@H]4/C=C\CCCCC[C@H](NC(=O)O[C@H](C)C(C)C)C(=O)N2C1)O3` [Example 356, (2R)-3-methylbutan-2-yl [(1′R,2S,6S,12Z,13aS,14aR,16aS)-1′-fluoro-9′-methoxy-5′-methyl-14a-{[(1-methylcyclopropyl)sulfonyl]carbamoyl}-5,16-dioxo-1,1′,2′,5,6,7,8,9,10,11,13a,14,14a,15,16,16a-hexadecahydrospiro[cyclopropa[e]pyrrolo[1,2-a][1,4]diazacyclopentadecine-2,3′-pyrano[2,3-c]quinolin]-6-yl]carbamate], in the test on HCV genotype 1b replicon (setting [4]), the EC50 came to 3.73 nM. The IC50 in test [1] (setting [5]) came out at 0.012 nM.
As to `CC(C)COC(=O)N[C@H]1CCCCC/C=C\[C@@H]2C[C@@]2(C(=O)NS(=O)(=O)C2(C)CC2)NC(=O)[C@@H]2C[C@]3(CCc4c(c(C(F)(F)F)nc5ccccc45)O3)CN2C1=O` [Example 160, 2-methylpropyl [(2R,6S,12Z,13aS,14aR,16aS)-14a-{[(1-methylcyclopropyl)sulfonyl]carbamoyl}-5,16-dioxo-5′-(trifluoromethyl)-1,1′,2′,5,6,7,8,9,10,11,13a,14,14a,15,16,16a-hexadecahydrospiro[cyclopropa[e]pyrrolo[1,2-a][1,4]diazacyclopentadecine-2,3′-pyrano[2,3-c]quinolin]-6-yl]carbamate], the EC50 in the test with HCV genotype 1b replicon (setting [4]) stood at 1.82 nM. Besides, the IC50 in test [1] (setting [5]) is 0.026 nM.
For `COc1ccc2nc(C3CC3)c3c(c2c1)C(F)(F)C[C@]1(C[C@H]2C(=O)N[C@]4(C(=O)NS(=O)(=O)C5(C)CC5)C[C@H]4/C=C\CCCCC[C@H](NC(=O)O[C@@H](C)C(C)C)C(=O)N2C1)O3` [Example 250, (2S)-3-methylbutan-2-yl [(2S,6S,12Z,13aS,14aR,16aS)-5′-cyclopropyl-1′,1′-difluoro-9′-methoxy-14a-{[(1-methylcyclopropyl)sulfonyl]carbamoyl}-5,16-dioxo-1,1′,2′,5,6,7,8,9,10,11,13a,14,14a,15,16,16a-hexadecahydrospiro[cyclopropa[e]pyrrolo[1,2-a][1,4]diazacyclopentadecine-2,3′-pyrano[2,3-c]quinolin]-6-yl]carbamate], in the test on HCV genotype 1b replicon (setting [2]), the EC50 came out at 6.5 nM. The IC50 in test [1] (setting [3]) came to 0.024 nM.
Turning to `Cc1nc2c(C(F)(F)F)cccc2c2c1O[C@]1(CC2)C[C@H]2C(=O)N[C@]3(C(=O)NS(=O)(=O)C4(C)CC4)C[C@H]3/C=C\CCCCC[C@H](NC(=O)OCC(C)C)C(=O)N2C1` [Example 113, 2-methylpropyl [(2R,6S,12Z,13aS,14aR,16aS)-5′-methyl-14a-{[(1-methylcyclopropyl)sulfonyl]carbamoyl}-5,16-dioxo-7′-(trifluoromethyl)-1,1′,2′,5,6,7,8,9,10,11,13a,14,14a,15,16,16a-hexadecahydrospiro[cyclopropa[e]pyrrolo[1,2-a][1,4]diazacyclopentadecine-2,3′-pyrano[2,3-c]quinolin]-6-yl]carbamate], in the test on HCV genotype 1b replicon (setting [2]), the half-maximal effective concentration (EC50) came to 3.95 nM. The compound also registered an IC50 in test [1] (setting [3]) of 0.298 nM.
Regarding `CCc1nc2ccc(OCCN3CCOCC3)cc2c2c1O[C@]1(CC2)C[C@H]2C(=O)N[C@]3(C(=O)NS(=O)(=O)C4(C)CC4)C[C@H]3/C=C\CCCCC[C@H](NC(=O)O[C@@H]3C[C@@H]4C[C@@H]4C3)C(=O)N2C1` [Example 516, (1R,3r,5S)-bicyclo[3.1.0]hex-3-yl {(2R,6S,12Z,13aS,14aR,16aS)-5′-ethyl-14a-{[(1-methylcyclopropyl)sulfonyl]carbamoyl}-9′-[2-(morpholin-4-yl)ethoxy]-5,16-dioxo-1,1′,2′,5,6,7,8,9,10,11,13a,14,14a,15,16,16a-hexadecahydrospiro[cyclopropa[e]pyrrolo[1,2-a][1,4]diazacyclopentadecine-2,3′-pyrano[2,3-c]quinolin]-6-yl}carbamate], the EC50 in the test with HCV genotype 1b replicon (Hepatitis C virus, HCV replicon, genotype 1b, HCl salt) came out at 1.09 nM. The half-maximal inhibitory concentration (IC50) in test [1] (IC50 [gt-1b], NS3/4A protease TRF assay, genotype 1b enzyme 0.2 nM, HCl salt) worked out at 0.01 nM.
Consider `COc1ccc2nc(C)c3c(c2c1)CC[C@]1(C[C@H]2C(=O)N[C@]4(C(=O)NS(=O)(=O)C5(C)CC5)C[C@H]4CCCCCCC[C@H](NC(=O)OC(C)(C)C(F)(F)F)C(=O)N2C1)O3` [Example 35], for which the 50% effective concentration (EC50) with HCV genotype 1b replicon (Hepatitis C virus, GETYPE1B|GT1B, genotype 1b replicon) turned out to be 1.69 nM. The 50% inhibitory concentration (IC50) in test [1] (setting [3]) came out at 0.016 nM.
As to `Cc1ccc2nc(C)c3c(c2c1)CC[C@]1(C[C@H]2C(=O)N[C@]4(C(=O)NS(=O)(=O)C5(C)CC5)C[C@H]4/C=C\CCCCC[C@H](NC(=O)OC(C)C)C(=O)N2C1)O3` [Example 109, propan-2-yl [(2R,6S,12Z,13aS,14aR,16aS)-5′,9′-dimethyl-14a-{[(1-methylcyclopropyl)sulfonyl]carbamoyl}-5,16-dioxo-1,1′,2′,5,6,7,8,9,10,11,13a,14,14a,15,16,16a-hexadecahydrospiro[cyclopropa[e]pyrrolo[1,2-a][1,4]diazacyclopentadecine-2,3′-pyrano[2,3-c]quinolin]-6-yl]carbamate], in the test with HCV genotype 1b replicon (setting [2]), the half-maximal effective concentration (EC50) turned out to be 0.944 nM. In test [1] (setting [3]), this compound gave a half-maximal inhibitory concentration (IC50) of 0.011 nM.
In the case of `Cc1nc2ccc(OCCN3CCOCC3)cc2c2c1O[C@]1(CC2)C[C@H]2C(=O)N[C@]3(C(=O)NS(=O)(=O)C4(C)CC4)C[C@H]3/C=C\CCCCC[C@H](NC(=O)OCC(C)(C)C)C(=O)N2C1` [Example 425, 2,2-dimethylpropyl {(2R,6S,12Z,13aS,14aR,16aS)-5′-methyl-14a-{[(1-methylcyclopropyl)sulfonyl]carbamoyl}-9′-[2-(morpholin-4-yl)ethoxy]-5,16-dioxo-1,1′,2′,5,6,7,8,9,10,11,13a,14,14a,15,16,16a-hexadecahydrospiro[cyclopropa[e]pyrrolo[1,2-a][1,4]diazacyclopentadecine-2,3′-pyrano[2,3-c]quinolin]-6-yl}carbamate], in the test on HCV genotype 1b replicon (Hepatitis C virus, HCV replicon, genotype 1b), the concentration giving a half-maximal response (EC50) was 3.29 nM. The compound also showed an IC50 in test [1] (IC50 [gt-1b], NS3/4A protease TRF assay, genotype 1b enzyme 0.2 nM) of 0.024 nM.

The EC50 is the midpoint of the concentration-response curve. Usually IC50 stands for the midpoint of a concentration-inhibition curve.

Source of the values: patent US8987195B2 (priority 2012, dated 2015).
